Assay results as given in publication PMC6271245, “Discovery of Gramine Derivatives That Inhibit the Early Stage of EV71 Replication in Vitro” (Molecules, 2014).

Legend:
EV71 RNA = assay: Viral RNA synthesis by quantitative RT-PCR in RD cells; format: cell-based, Enterovirus 71; conditions: 40 µg/mL
Method: To further analyze the effect of 4s on EV71 replication in RD cells, the efficacy of 4s in inhibiting viral RNA synthesis was analyzed by quantitative reverse transcription polymerase chain reaction (RT-PCR). The infected cells treated with or without 40 µg/mL 4s were harvested at 4, 8, 24 and 36 h pi to examine the relative amount of viral RNA. The fold difference of RNA for all the samples was calculated relative to the RNA level in the EV71-infected cells (virus control) at 4 h pi.
(§1) Figure 4 The effect of 4s on EV71 replication in RD cells. RD cells infected with 100 TCID50 of EV71 were incubated in the absence (virus control) or presence of 40 µg/mL 4s and harvested at the indicated times pi. (A) Total RNA was extracted from cells and culture supernatants and EV71 RNA levels were measured. Cellular actin amplification was used for normalization. The ΔΔCt data were calculated from three independent experiments; (B) EV71-protein was determined by indirect immunofluorescence using a mouse anti-enterovirus 71 monoclonal antibody and an Alexa-Fluor-488-conjugated AffiniPure goat anti-mouse IgG (H + L). The nucleus was stained with DAPI; the green foci indicate the presence of EV71 protein.
The EV71 RNA was extracted from infected cells and culture supernatants with TRIzol (Gibco-Invitrogen, Carlsbad, CA, USA) and reverse-transcribed using a PrimeScript RT reagent kit (TaKaRa, Dalian, China) according to the manufacturer’s instructions. The products of reverse transcription were quantified with the SYBR Premix Ex Taq II (perfect real time) kit (TaKaRa) and detected with a Step One Plus sequence detection system (Applied Biosystems, Foster City, CA, USA). Expression of actin was used as an internal standard. The special primer sequences were: EV71-VP1-F: 5'-[…]-3', EV71-VP1-R: 5'-GTCTCAATCATGCTCTC GTCACT-3'; Actin-F: 5'-[…]-3', Actin-R: 5'-AGGGGCCGGACTCGT CATACT-3'.

EV71-infected RD cells = assay: EV71-induced apoptosis, Annexin-V/propidium iodide flow cytometry; format: cell-based, Human; conditions: 40 µg/mL, 100 TCID50 EV71, 36–48 h
Method: EV71 adsorption, internalization, entry, uncoating, and viral RNA replication are […] to trigger infected cell apoptosis, but it is required for viral protein synthesis. Flow cytometry was performed to investigate the effect of 4s on virus-induced cell apoptosis. In the assays, EV71-infected cells were stained with Annexin-V-fluorescein and propidium iodide; fluorescence drifting indicates cells undergoing apoptosis.
Figure 5 Inhibition effect of 4s on EV71-induced apoptosis. RD cells were (A) left untreated or (B) infected with 100 TCID50 of EV71. After viral adsorption, RD cells were incubated in the (B) absence or (C) presence of 40 µg/mL 4s for 36–48 h; (D) The cells were stained with Annexin-V- fluorescein and propidium iodide and measured using flow cytometry. TEXT PRINTED IN THE PICTURE: (C) Virus + 4s: Q1 3.21%; Q2 4.06%; Q4 89.2%; Q3 3.55% DOUBTS OF THE COPYIST ABOUT THIS PICTURE: Panels A (Mock) and B (Virus control) also print quadrant percentages (A: 0.548%, 1.84%, 93.9%, 3.75%; B: 1.32%, 40.1%, 23.7%, 34.9%). I left them out because they are controls without a substance.
For the apoptosis assay, RD cells in 6-well plates infected with 100 TCID50 of EV71 were left untreated or treated with 40 µg/mL 4s for 36–48 h, until the CPEs of virus control cells reached 70%–80%. […]

EV71 protein = assay: Viral protein by indirect immunofluorescence in RD cells; format: cell-based, Enterovirus 71; conditions: 40 µg/mL post-infection, RD cells, 4, 8 or 24 h
Method: as §1
The influence of 4s on the replication of EV71 was also determined at the translational level. The RD cells grown in 24 coverslips were infected with EV71 and treated with 40 µg/mL 4s post-infection, intracellular viral protein was detected by indirect immunofluorescence analysis after incubation for 4, 8 or 24 h. […]

## c1ccc(C(Nc2nc3ccccc3s2)c2c[nH]c3ccccc23)nc1 (stereo not drawn) [Compound 4s]
EV71 RNA; 4 h pi
  fold reduction of viral RNA copy number vs virus control: 1.8 fold
EV71 RNA; 8 h pi
  fold reduction of viral RNA copy number vs virus control: 9.0 fold
EV71 RNA; 24 h pi
  fold reduction of viral RNA copy number vs virus control: 79.8 fold
EV71 RNA; 36 h pi
  fold reduction of viral RNA copy number vs virus control: 174.7 fold
EV71-infected RD cells
  EV71-induced apoptosis (fluorescence drifting): fluorescence drifting could hardly be observed
EV71 protein
  viral protein synthesis (immunofluorescent foci): suppressed
